Test results as given in patent US20100166701A1, “METHOD FOR TREATING RENAL CELL CARCINOMA USING GLYCOGENOLYSIS INHIBITORS” (priority 2008, published 2010).
“Also recorded” adds a separate entry of the source. Read-outs that look alike come from different tables or passages of the source.

Key:
prostate cancer cells = settings: cited from earlier work
pancreatic tumor cells = settings: cited from earlier work
CAKI-2 cells [1] = assay: Cell death by propidium iodide inclusion (FACScan) under nutrient deprivation and azide; type: cell-based, human
Description: The invention was tested in an in vitro model. CAKI-2 cells were pre-incubated in the presence of 300 μM desferrioximine (DFO, solid line) in RPMI1640 and 10% fetal calf serum to induce the accumulation of glycogen. After 16 hours the media was changed to DMEM with 0 mM glucose and 0 mM pyruvate for 4 hours, to mimic the absence of nutrient as present in the interior of a tumor or resulting from treatment with anti-angiogenic inhibitors, increasing concentrations of sodium azide (0 to 100 mM) to mimic the absence of oxygen, and the presence or absence of 60 μM CP-316819 to specifically target glycogenolysis (CP, closed circles). Cells were then trypsinized, collected, treated with 0.1 mg propidium iodide in KRBH buffer (25 mM HEPES 7.4, 120 mM NaCl, 4.6 mM KCl, 1.9 mM CaCl2, 1 mM MgSO4, and 1.2 mM KH2PO4), and analyzed for cell death by measuring inclusion of propidium iodide on a FACScan instrument ([…]).

HIF protein = assay: Immunoblot of HIF protein levels in Caki-2 cells; type: cell-based, human; settings: 100 μM, 20 mM glucose, 24 h
Description: (§1) To test this hypothesis it was first necessary to establish an in vitro model of glycogenosis in a relevant clear cell renal cell carcinoma (ccRCC) cell type (CAKI-2 cells). It was first necessary to induce levels of glycogenosis similar to those measured in human disease. We obtained human RCC biopsies (FIG. 4 B) and compared glycogen levels with neighboring grossly uninvolved tissue (GU). There was a 180-fold induction of glycogen levels in human RCC (1±1 to 230±40 μg glucose/mg protein, p<0.01). We treated human Caki-2 RCC cells with known activators of hypoxia pathway in 20 mM glucose for 24 h: 100 μM cobalt chloride, 100 μM desferrioxamine (DFO), and hypoxia (pO2=1%) (FIG. 4 A).

human Caki-2 RCC cells = assay: Induction of glycogenosis in Caki-2 RCC cells by activators of the hypoxia pathway; type: cell-based
Description: as §1, with “There was a 180-fold induction of glycogen levels in human RCC (1±1 to 230±40 μg glucose/mg protein, p<0.01).” left out
We therefore repeated the induction of glycogenosis with DFO after prior treatment with HIF-1α RNAi (FIG. 5).

[2] = cited from earlier work
RCC [3] = settings: clinical trials; cited from earlier work
CAKI-2 cells [4] = assay: Glycogen mobilization in glucose-starved CAKI-2 cells; type: cell-based, human
Excerpt: Caki-2 cells loose glycogen when starved of glucose in the media and not when there was abundant glucose (p<0.05). As proposed in the invention glycogen reserves are responsive to the metabolic status of the carcinoma cell and are mobilized in response to metabolic stress.
We also tested whether glycogen mobilization could be inhibited pharmacologically (FIG. 6B). We therefore treated glucose-starved CAKI-2 cells with two types of glycogenolysis inhibitor: CP-316819 (▪), which inhibits glycogen phosphorylase and NN-DNJ (♦), which inhibits lysosomal glycogen breakdown. […] After 4 h glycogen loss was restricted to 25% and roughly ⅓^rd was still present after 20 h in glucose free media (p<0.05).

RCC [5] = settings: high dose, cited from earlier work
[6] = 100 μM, 20 mM glucose, 24 h, Caki-2 cells

In the case of `CN(C)C(=O)[C@H](O)[C@H](Cc1ccccc1)NC(=O)c1cc2cc(Cl)ccc2[nH]1` [CP-91149], the glycogen content (prostate cancer cells) is given as “two-fold increase” and the “reduction in cell number” value (prostate cancer cells) is given as 50%.
For `O=C(N[C@@H](Cc1ccc(F)cc1)C(=O)N1CCC(O)CC1)c1cc2cc(Cl)ccc2[nH]1` [CP-320626], the “flux into fatty acid synthesis and the pentose phosphate cycle” value (pancreatic tumor cells; concentrations below those required for anti-proliferative and pro-apoptotic effects) is listed as “inhibited” and the “flux of glucose through the TCA cycle” value (pancreatic tumor cells; pancreatic tumor cells) is listed as “decreased”.
For `CC(=O)N(O)CCCCCNC(=O)CCC(=O)N(O)CCCCCNC(=O)CCC(=O)N(O)CCCCCN` [DFO, desferrioxamine], the “resistance to cell death” value (CAKI-2 cells [1]; pre-incubated 300 μM DFO 16 hours, 100 mM azide, 0 mM glucose 4 hours) was “significantly resistant to cell death”, the “stabilization of HIF protein levels” value (HIF protein) was “able to stabilize HIF protein levels” and the “glycogen level (glycogenosis)” value (human Caki-2 RCC cells; [6]) was 320±90 μg glucose/mg protein. The “increase of glycogen levels” value (human Caki-2 RCC cells; CAKI-2 cells, DFO treatment) was 9 fold.
In the case of `CCCCCCCCCN1C[C@H](O)[C@@H](O)[C@H](O)[C@H]1CO` [NN-DNJ, N-(n-Nonyl)deoxynojirimycin], the “duration of sustained increases in hepatic glycogen levels” value ([2]; mice) is listed as “at least 120 days”, the body weight ([2]; mouse, in vivo) is listed as “did not lose body weight” and the hypoglycemia ([2]; mouse, in vivo) is listed as “did not suffer hypoglycemia below normal fasting levels”.
For `[Cl][Co][Cl]` [cobalt chloride], the “stabilization of HIF protein levels” value (HIF protein) was “only DFO was able to stabilize HIF protein levels” and the “induction of glycogenosis to a level equivalent to human RCC biopsies” value (human Caki-2 RCC cells; [6]) was “Only DFO, the iron chelator, was able to induce glycogenosis”.
In the case of `CCN(CC)CCNC(=O)c1c(C)[nH]c(/C=C2\C(=O)Nc3ccc(F)cc32)c1C` [sunitinib malate], the “median increase in survival” value (RCC [3]) is listed as 16.4 months, the response (RCC [3]) is listed as 24% to 40% and the “stable disease, additional patients” value (RCC [3]) is listed as 27% to 46%.
For CP-316819, the glycogen loss (CAKI-2 cells [4]; after 4 h, glucose-starved CAKI-2 cells) was 25%, the “glycogen still present (fraction)” value (CAKI-2 cells [4]; after 20 h in glucose free media) was “roughly ⅓” and the “reducing glycogen breakdown (comparison of the two inhibitors)” value (CAKI-2 cells [4]; glucose-starved CAKI-2 cells) was “most effective at reducing glycogen breakdown”. The “protection of glycogen-loaded cells against cell death” value (CAKI-2 cells [1]; 60 μM CP-316819, DFO-pretreated cells, 0 mM glucose, 0 mM pyruvate, 4 hours, sodium azide) was “this protection is lost; also recorded: removed that protection”.
For “bevacizumab: humanized monoclonal antibody, VEGF receptor antagonist”, the survival (RCC [5]; after three years) is given as “no difference in survival” and the response (RCC [5]) is given as 30%.
With ferric ammonium citrate the DFO-dependent glycogen accumulation (human Caki-2 RCC cells; incubated in 150 μM ferric ammonium citrate) was “did not occur”.
